Test results taken from patent US20070066601A1, “Combination of a serotonin reuptake inhibitor and a histamine 3 receptor antagonist, inverse agonist or partial agonist” (H. LUNDBECK A/S, priority 2003, published 2007).

How the values were obtained:
[1] = system: cortex synaptosomes; details: cited from earlier work
[2] = system: serotonin levels in ventral hippocampus; test: Microdialysis of brain serotonin levels in rats; type: in vivo, rat; details: for effect on 5-HT levels when compared to citalopram administration alone: P<0.0001
Procedure: Male albino rats of a Wistar-derived strain (285-320 g; Harlan, Zeist, The Netherlands) were used for the experiments. Upon surgery, rats were housed individually in plastic cages (35×35×40 cm), and had free access to food and water. Animals were kept on a 12 h light schedule (light on 7:00 a.m.). The experiments are concordant with the declarations of Helsinki and were approved by the animal care committee of the faculty of mathematics and natural science of the University of Groningen.
Microdialysis of brain serotonin levels was performed using home made I-shaped probes, made of polyacrylonitrile/sodium methyl sulfonate copolymer dialysis fiber (i.d. 220 μm, o.d. 300 μm, AN 69, Hospal, Italy). Preceding surgery rats were anaesthetised using isoflurane (O2/N2O; 300/300 ml/min). Lidocaine-HCl, 10 % (m/v) was used for local anaesthesia. Rats were placed in a stereotaxic frame (Kopf, USA), and probes were inserted into Ventral Hippcampus (V. Hippo, L +4.8 mm, […], V: −8.0 mm) and median prefrontal cortex (PFC, L −0.9 mm; AP: +3.5 mm relative to bregma; V: −6.0 mm (Paxinos and Watson, 1982). After insertion, probes were secured with dental cement.
Rats were allowed to recover for at least 24 h. Probes were perfused with artificial cerebrospinal fluid containing 147 mM NaCl, 3.0 mM KCl, 1.2 mM CaCl2, and 1.2 mM MgCl2, at a flow-rate of 1.5 μl/min (Harvard apparatus, South Natick, Mass., USA). 15 minute microdialysis samples were collected in HPLC vials containing 7.5 μl 0.02 M acetic acid for serotonin analysis.
Twenty-μl microdialysate samples were injected via an autoinjector (CMA/200 refrigerated microsampler, CMA, Sweden) onto a 100×2.0 mm C18 Hypersil 3 μm column (Bester, Amstelveen, the Netherlands) and separated with a mobile phase consisting of 5 g/L di-ammoniumsulfate, 500 mg/L EDTA, 50 mg/L heptane sulphonic acid, 4% methanol v/v, and 30 μI/L of triethylamine, pH 4.65 at a flow of 0.4 ml/min (Shimadzu LC-10 AD). 5-HT was detected amperometrically at a glassy carbon electrode at 500 mV vs Ag/AgCl (Antec Leyden, Leiden, The Netherlands). The detection limit was 0.5 fmol 5-HT per 20 μl sample (signal to noise ratio 3).
Four consecutive microdialysis samples with less then 20% variation were taken as control and set at 100%. Data are presented as percentages of control level (mean±S.E.M.) in time. Statistical analysis was performed using Sigmastat for Windows (SPSS, Jandel Corporation). Treatments were compared versus controls using two way analysis of variance (ANOVA) for repeated measurements, followed by Student Newman Keuls test. Level of significance level was set at p<0.05.

For `C[C@@H](N)Cc1cnc[nH]1` [R-(alphe)-methylhistamine], the “effect on electrical evoked release of tritiated serotonin” value [1] is listed as “inhibited”.
In the case of `S=C(NC1CCCCC1)N1CCC(c2cnc[nH]2)CC1` [thioperamide, Thioperamide], the “effect on 5-HT levels when compared to citalopram administration alone” value ([2]; co-administration of citalopram 10 μmol/kg with thioperamide 5 mg/kg s.c.) is listed as “augmented effect”, the “effects on serotonin levels in ventral hippocampus” value ([2]; thioperamide alone, 5 mg/kg s.c., P=0.44 n.s.) is listed as “did not induce any effects” and the “effect on the inhibition of evoked serotonin release by R-(alphe)-methylhistamine” value [1] is listed as “reversed”.
For `O=C(c1ccc(OCCCc2cnc[nH]2)cc1)C1CC1` [ciproxifan, Ciproxifan], the “effects on serotonin levels in ventral hippocampus” value ([2]; ciproxifan alone, 15 mg/kg s.c., P=0.54 n.s.) was “did not induce any effects” and the “effect on 5-HT levels when compared to citalopram administration alone” value ([2]; co-administration of citalopram 10 μmol/kg with ciproxifan 15 mg/kg s.c.) was “augmented effect”.
